Source: US7208502B2, “Methods of treating conditions associated with an Edg-3 receptor” (Maniv Energy Capital, priority 2002, dated 2007)
Entries after “also recorded” stand apart in the source; their conditions may differ.

Experiments:
[1] = target: T1, Endothelin ETA (Homo sapiens, UniProt P25101); assay: Radioligand binding assay, 125I Endothelin; conditions: 10 μM; significance criteria ≧50% of max stimulation or inhibition
T1 construct: expressed in transfected cells; host or cells: CHO cells
T1 sequence (P25101 21-427): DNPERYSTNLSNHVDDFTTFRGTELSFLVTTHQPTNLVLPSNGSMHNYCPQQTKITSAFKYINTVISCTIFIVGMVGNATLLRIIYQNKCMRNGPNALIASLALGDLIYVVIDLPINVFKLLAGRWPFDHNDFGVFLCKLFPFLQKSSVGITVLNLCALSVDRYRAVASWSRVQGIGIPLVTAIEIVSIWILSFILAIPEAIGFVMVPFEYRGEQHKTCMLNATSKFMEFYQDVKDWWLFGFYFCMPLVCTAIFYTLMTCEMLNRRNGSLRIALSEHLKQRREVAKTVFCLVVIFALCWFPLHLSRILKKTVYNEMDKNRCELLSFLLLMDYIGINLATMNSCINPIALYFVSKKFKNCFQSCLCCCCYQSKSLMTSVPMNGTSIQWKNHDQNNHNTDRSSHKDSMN
Protocol: (§1) In order to test the selectivity of compounds, various enzyme assays as well as radioligand binding assays were performed using numerous non-Edg receptor targets as listed below.
(§2) A radioligand binding assay was performed using adrenergic α1 according to the method of Greengrass and Bremner 1979, Eur. J. Pharmacol. 55:323–326. A radioligand binding assay was performed using adrenergic α2 according to the method of Boyajian and Leslie, 1987, J. Pharmacol. Exp. Ther. 241:1092–1098. A radioligand binding assay was performed using adrenergic β according to the method of Feve et al., 1994, Proc. Natl. Acad. Sci. USA 91:5677–5681. A radioligand binding assay was performed using angiotensin AT2 according to the method of Whitebread et al., 1991, Biochem. Biophys. Res. Comm. 181:1365–1371. A radioligand binding assay was performed using calcium channel Type L, dihydropyridine according to the method of Ehlert et al., 1982, Life Sci. 30:2191–2202. A radioligand binding assay was performed using dopamine D2L according to the method of Bunzo et al., 1988, Nature 336:783–787. A radioligand binding assay was performed using endothelin ETA according to the method of Mihara et al., 1994, J. Phrmacol. Exp Ther. 268:1122–1127. A radioligand binding assay was performed using histamine H1 Central according to the method of Hill et al., 1978, J. Neurochem. 31:997–1004. […]
(§3) Quantitation Method: Radioligand Binding […]

[2] = target: T2, human Edg-3 receptors (Homo sapiens, UniProt Q99500); assay: Intracellular calcium (FLIPR) assay, S1P-stimulated, HTC cells expressing Edg-3; assay type: cell-based; conditions: HTC cells expressing human Edg-3 receptors; FIG. 1
T2 construct: expressed in transfected cells; host or cells: HTC rat hepatoma cells
Source text: Specific assays for Edg-3 receptor activity are known to those of skill in the art. For example, cells expressing Edg-3 receptors can be contacted with a membrane-permeant calcium sensitive dye such as Fluo-4 AM or a proprietary calcium dye loading kit (e.g., FLIPR Calcium Assay kit, Molecular Devices, Sunnyvale, Calif.). Intracellular calcium is capable of binding to the dye and emitting fluorescent radiation when illuminated at the appropriate wavelength. The cells can thus be illuminated an appropriate wavelength for the dye and any emitting light can be captured by a cooled CCD camera. Changes in fluorescence indicate changes in intracellular calcium resulting from the activation of an Edg-3 receptor. Such changes can be measured advantageously in whole cells in “real-time” (Berridge et al., Nature Reviews 2000, 1:11–21). […]
[…] such as Edg-3, couple to calcium effector pathways, and result in increases in intracellular calcium following receptor activation (An, 1998, J. Cell Biochem. Supp 30–31:147–157). This biological response lends itself to a very efficient, high-throughput screen using a Fluorescence Imaging Plate Reader (FLIPR; Molecular Devices, Sunnyvale, Calif.). The FLIPR system is a real-time, cell-based assay system with continuous fluorescence detection using a cooled CCD camera. […]

[3] = target: T3, Edg-1 (Homo sapiens, UniProt P21453); assay: Intracellular calcium assay, S1P-stimulated, HTC cells expressing Edg-1; assay type: cell-based; conditions: concentrations as high as 20 µM
T3 construct: expressed in transfected cells; host or cells: HTC rat hepatoma cells

[4] = target: T4, Angiotensin AT2 (Homo sapiens, UniProt P50052); assay: Radioligand binding assay, 125I CGP-42112A; conditions: 10 μM; significance criteria ≧50% of max stimulation or inhibition
T4 construct: expressed in transfected cells; host or cells: HeLa cells
T4 sequence (P50052 1-363): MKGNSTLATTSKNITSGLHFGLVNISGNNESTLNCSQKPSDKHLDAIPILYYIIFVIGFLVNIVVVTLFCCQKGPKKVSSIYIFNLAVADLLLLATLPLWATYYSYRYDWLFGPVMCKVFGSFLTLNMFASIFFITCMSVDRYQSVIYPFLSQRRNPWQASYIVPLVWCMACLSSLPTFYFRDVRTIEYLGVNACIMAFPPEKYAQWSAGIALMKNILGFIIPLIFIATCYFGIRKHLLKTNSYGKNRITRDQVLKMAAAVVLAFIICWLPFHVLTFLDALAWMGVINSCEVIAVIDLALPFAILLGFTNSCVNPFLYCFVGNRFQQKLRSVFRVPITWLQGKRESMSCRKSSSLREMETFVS
Protocol: as §1, §2, §3

T2 sequence (Q99500 whole entry): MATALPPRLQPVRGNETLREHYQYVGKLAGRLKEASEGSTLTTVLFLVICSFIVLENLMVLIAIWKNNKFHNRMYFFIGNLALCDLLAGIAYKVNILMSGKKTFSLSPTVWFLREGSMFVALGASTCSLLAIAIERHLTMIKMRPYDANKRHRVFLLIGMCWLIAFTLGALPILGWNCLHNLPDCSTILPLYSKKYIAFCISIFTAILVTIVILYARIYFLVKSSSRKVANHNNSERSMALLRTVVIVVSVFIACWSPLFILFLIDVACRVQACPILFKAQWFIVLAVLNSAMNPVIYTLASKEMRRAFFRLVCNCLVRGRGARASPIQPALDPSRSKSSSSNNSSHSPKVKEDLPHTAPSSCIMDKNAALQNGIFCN
T3 sequence (P21453 whole entry): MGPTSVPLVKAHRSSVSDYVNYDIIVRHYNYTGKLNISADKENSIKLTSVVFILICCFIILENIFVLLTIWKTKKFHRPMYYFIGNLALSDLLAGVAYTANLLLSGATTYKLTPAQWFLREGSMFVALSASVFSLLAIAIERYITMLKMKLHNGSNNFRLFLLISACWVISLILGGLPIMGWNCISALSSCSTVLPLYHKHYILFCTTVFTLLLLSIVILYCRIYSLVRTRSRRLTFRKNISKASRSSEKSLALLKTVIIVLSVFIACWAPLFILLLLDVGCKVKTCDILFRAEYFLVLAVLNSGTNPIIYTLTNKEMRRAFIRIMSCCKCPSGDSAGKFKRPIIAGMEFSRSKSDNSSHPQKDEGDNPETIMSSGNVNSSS

Cc1c(-c2ccccc2)nc2ccccc2c1C(=O)NCc1ccc(F)cc1 [Compound 101, 3-methyl-2-phenyl-quinoline-4-carboxylic acid 4-fluoro-benzylamide]
activity in standard binding assay, Endothelin ETA [1]: no activity | inhibition of Edg-3 stimulated S1P responses (Edg-3 receptors) [2]: demonstrate inhibition; also recorded: specifically inhibited | inhibition of S1P-stimulated calcium increases, Edg-1 [3]: did not inhibit | activity in standard binding assay, Angiotensin AT2 [4]: no activity
